From patent publication US7776558B2, “Human G protein-coupled receptor and modulators thereof for the treatment of cell death-related disorders” (Arena Pharmaceuticals, Inc., priority 2003, dated 2010)
Entries after “also recorded” stand apart in the source; their conditions may differ. Where no end group is shown, it is not given here.

Key:
[1] = system: primary mouse cortical neurons; assay: 22C11 (anti-APP antibody)-induced cell death of primary mouse cortical neurons; type: cell-based; details: added 1 h prior to mAb 22C11; overnight (~18 h); LDH assay; FIG. 11B
From the text: 22C11 is a monoclonal antibody (mAb) which binds to the extracellular domain of the human, rat or mouse β-amyloid precursor protein (APP) (Boehringer Mannheim; Indianapolis, Ind.).
The assay was set up essentially as described by Rohn et al. [Neurochem (2000) 74:2331-2342]. Briefly, the primary cultures of mouse cortical neurons were established from E17 embryos. The gestational pups were humanely decapitated, and the brain was harvested into Hanks Buffered Salt Solution (HBSS) buffer. The cortices were taken and processed with trypsin (0.05% in HBSS), after which the cells were mechanically dissociated using a 21 g needle. The cell suspension was then passed through a […] filter, and the recovered cells plated on poly-D-lysine-treated 12-well plates. After five days of culture, the cells were used for assay.
For the assay, four experimental groups were set up. […] In the “22C11” group, cells were cultured in the presence of mAb 22C11 alone. […] The assay was allowed to proceed overnight (˜18 h), after which cell viability was determined by LDH assay as described in Example 25.

FPRL2 = target: T1, FPRL2 (Homo sapiens, UniProt P25089); assay: Pertussis toxin sensitivity of signaling, adenylate cyclase assay in HEK293 cells; type: cell-based; set-up: expressed in transfected cells; details: pre-treated 18 to 20 hrs with 50 ng/ml pertussis toxin; 5 μM forskolin; FIG. 7
T1 sequence (P25089 1-353): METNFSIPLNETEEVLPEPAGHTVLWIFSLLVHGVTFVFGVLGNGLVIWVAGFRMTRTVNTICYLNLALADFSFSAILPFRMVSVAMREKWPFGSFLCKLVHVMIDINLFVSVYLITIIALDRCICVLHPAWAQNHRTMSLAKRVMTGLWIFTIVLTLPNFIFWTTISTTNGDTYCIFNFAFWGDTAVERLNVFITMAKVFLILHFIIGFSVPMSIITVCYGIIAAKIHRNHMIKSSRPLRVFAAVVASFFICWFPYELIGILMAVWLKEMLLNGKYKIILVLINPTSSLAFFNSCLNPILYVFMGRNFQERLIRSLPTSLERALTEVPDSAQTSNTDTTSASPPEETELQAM
Description: The pertussis toxin sensitivity of Compound 1 signalling through human FPRL2 was determined similarly.
Samples were then assessed for cAMP levels as described in Example 4, supra.

FPR = target: T2, FPR (Homo sapiens, UniProt P21462); assay: [35S]GTPγS binding assay, membranes of transiently transfected CHO cells; type: biochemical; set-up: Full-Length Cloning of Human GPCRs; expressed in transfected cells; host or cells: CHO-K1 cells, transient, pCMV; plasma membranes; details: FIG. 3 panel C; up to a dose of 10 μM
T2 sequence (P21462 1-350): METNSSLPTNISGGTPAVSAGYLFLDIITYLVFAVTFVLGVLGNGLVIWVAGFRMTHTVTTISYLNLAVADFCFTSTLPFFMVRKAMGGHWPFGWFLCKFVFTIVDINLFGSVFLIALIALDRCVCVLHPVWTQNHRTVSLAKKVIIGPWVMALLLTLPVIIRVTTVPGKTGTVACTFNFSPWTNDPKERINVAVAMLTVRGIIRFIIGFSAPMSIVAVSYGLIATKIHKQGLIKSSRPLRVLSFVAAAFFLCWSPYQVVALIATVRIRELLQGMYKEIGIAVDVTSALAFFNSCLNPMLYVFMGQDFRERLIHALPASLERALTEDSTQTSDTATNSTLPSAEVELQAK
Description: The plasmids used were HA/V5 doubled tagged endogenous FPRL2 in pCMV, HA/V5 double-tagged endogenous FPRL1 in pCMV, HAN5 double-tagged endogenous FPR in pCMV, and pCMV alone (See, Example 1). Transient transfections were carried out on CHO-K1 cells. To a 15 cm dish of confluent cells, 12 μg of plasmid DNA and 60 μl Lipofectamine (Invitrogen, Carlsbad, Calif.) were added to each plate. Twenty-four hours post-infection, plasma membranes were isolated as described below. Assays were then run as described below.
“Membrane Scrape Buffer” consists of 20 mM HEPES and 10 mM EDTA, pH 7.4; “Membrane Wash Buffer” consists of […] and 0.1 mM EDTA, pH 7.4; “Binding. Buffer” consists of 20 mM HEPES, 100 mM NaCl, and 10 mM MgCl2, pH 7.4.
All materials were kept on ice throughout the procedure. Firstly, the media was aspirated from a confluent monolayer of transfected cells, followed by rinse with 10 ml cold PBS, followed by aspiration. Thereafter, 10 ml of Membrane Scrape Buffer was added to scrape cells; this was followed by transfer of cellular extract into 50 ml centrifuge tubes (centrifuged at 20,000 rpm for 17 minutes at 4° C.). […]
First, 100 μl GDP Buffer was added to each well of a Wallac Scintistrip™ (Wallac). […] The plates were then read on a Wallac 1450 using setting “Prot. #37” (as per manufacturer instructions).

neuronal cells = details: cited from earlier work

Compound	Protection from cell death induced by anti-APP mAb 22C11 [1]	Pertussis toxin sensitivity of the inhibition of cAMP through FPRL2 (FPRL2)	Activity at FPR, promoted [35S]GTPγS binding (FPR)	Protection of neuronal cells from toxic insults (neuronal cells; Alzheimer's disease-relevant toxicity, three mutant FAD genes and Aβ)	Rescue of cortical neurons from prion-peptide-induced apoptosis (neuronal cells; Sponne et al. 2004)	Protective activity for neurons against serum deprivation (neuronal cells; Takahashi et al. 2002)	Activity relative to Humanin (neuronal cells; Niikura et al. 2002)
CC(C)c1ccc2c(c1)CCC1C(C)(C(N)=O)CCCC21C (stereo not shown) [Compound 1, 7-Isopropyl-1,4a-dimethyl-1,2,3,4,4a,9,10,10a-octahydro-phenanthrene-1-carboxylic acid amide]	protect primary mouse cortical neurons from cell death	pertussis sensitive					
CC[C@H](C)[C@H](NC(=O)[C@H](CCC(=O)O)NC(=O)[C@H](CO)NC(=O)[C@@H](NC(=O)[C@H](CC(C)C)NC(=O)[C@H](CC(C)C)NC(=O)[C@H](CC(C)C)NC(=O)[C@H](CC(C)C)NC(=O)[C@H](CS)NC(=O)[C@H](CO)NC(=O)[C@H](Cc1ccccc1)NC(=O)CNC(=O)[C@H](CCCNC(=N)N)NC(=O)[C@@H]1CCCN1C(=O)[C@H](C)NC(=O)[C@@H](N)CCSC)[C@@H](C)O)C(=O)N[C@@H](CC(=O)O)C(=O)N[C@@H](CC(C)C)C(=O)N1CCC[C@H]1C(=O)N[C@H](C(=O)N[C@@H](CCCCN)C(=O)N[C@@H](CCCNC(=N)N)C(=O)N[C@@H](CCCNC(=N)N)C(=O)N[C@@H](C)C(=O)O)C(C)C [Humanin]	protect primary mouse cortical neurons from cell death	pertussis sensitive	Neither Humanin nor [Gly14]-Humanin evidence significant activity	protect neuronal cells from Alzheimer's disease-relevant toxicity; also recorded: protect neuronal cells from a number of toxic insults	rescue cortical neurons from prion-peptide-induced apoptosis	protective activity for neurons against serum deprivation	
MAPRGFSCLLLLTGEIDLPVKRRA [[Gly14]-Humanin]			Neither Humanin nor [Gly14]-Humanin evidence significant activity				significantly more active than Humanin
